Assay results as given in patent US20260034124A1, “NOVEL SALTS AND CRYSTALS” (INTRA-CELLULAR THERAPIES, INC., priority 2022, published 2026).
Like-named read-outs stand apart in the source and are kept apart here.

What was measured:
[1] = Aqueous solubility determination, saturated solution shaken in water, LC; type: physicochemical; conditions: slurried 24 hours, filtered
Procedure: The aqueous solubility of the successfully reproduced salts is determined by shaking a saturated solution in water. The solubility at pH 7.4 is determined by shaking a saturated solution in a phosphate buffered system. The samples are prepared by the addition of a known amount of water (100-200 μl) and subsequent slurrying with the solid for 24 hours. All samples are then filtered using syringe filters to remove undissolved solids, and then the filtrates are diluted with methanol/acetonitrile (1:1 v/v). LC analysis of the samples is performed, and a calibration line is used for the determination of the solubilities.

H1 histaminergic = H1 histaminergic (Homo sapiens, UniProt P35367); conditions: cited from earlier work
H1 histaminergic, sequence (P35367 whole entry): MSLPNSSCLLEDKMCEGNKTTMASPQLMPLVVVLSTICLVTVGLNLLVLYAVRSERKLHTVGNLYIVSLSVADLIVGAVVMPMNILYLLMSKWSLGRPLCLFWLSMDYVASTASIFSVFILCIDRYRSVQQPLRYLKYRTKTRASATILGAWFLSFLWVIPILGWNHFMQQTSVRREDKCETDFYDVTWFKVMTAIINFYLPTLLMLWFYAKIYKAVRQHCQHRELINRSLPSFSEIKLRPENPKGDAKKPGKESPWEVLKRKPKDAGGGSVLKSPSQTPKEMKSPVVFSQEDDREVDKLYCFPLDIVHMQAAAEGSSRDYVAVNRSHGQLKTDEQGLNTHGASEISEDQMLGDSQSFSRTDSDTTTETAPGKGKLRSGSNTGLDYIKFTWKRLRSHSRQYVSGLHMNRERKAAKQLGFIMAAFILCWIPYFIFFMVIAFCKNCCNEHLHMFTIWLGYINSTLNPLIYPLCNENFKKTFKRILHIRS

5-HT2C = target: T1, 5-HT2C (Homo sapiens, UniProt P28335); conditions: cited from earlier work
T1 sequence (P28335 33-458): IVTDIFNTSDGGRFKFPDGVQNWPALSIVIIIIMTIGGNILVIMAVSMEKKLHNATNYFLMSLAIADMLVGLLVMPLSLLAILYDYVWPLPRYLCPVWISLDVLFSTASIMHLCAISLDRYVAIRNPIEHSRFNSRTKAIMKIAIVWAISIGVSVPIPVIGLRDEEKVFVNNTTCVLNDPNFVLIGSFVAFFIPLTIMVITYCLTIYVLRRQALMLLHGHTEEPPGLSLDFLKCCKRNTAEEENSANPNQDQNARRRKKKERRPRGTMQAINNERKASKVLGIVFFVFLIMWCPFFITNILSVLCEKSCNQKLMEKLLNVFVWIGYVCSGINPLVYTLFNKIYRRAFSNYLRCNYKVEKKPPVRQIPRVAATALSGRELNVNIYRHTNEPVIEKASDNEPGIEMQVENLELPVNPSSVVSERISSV

muscarinic = conditions: cited from earlier work
[2] = free base form, cited from earlier work

CCCCCCCCc1ccc(S(=O)(=O)O)cc1.CN1CCN2c3c(cccc31)[C@@H]1CN(CCCC(=O)c3ccc(F)cc3)CC[C@@H]12 [4-octylbenzenesulfonate salt, lumateperone 4-octylbenzenesulfonate salt]
Aqueous Solubility [1]: 6 µg/mL

CC(C)(C)c1ccc(S(=O)(=O)O)cc1.CN1CCN2c3c(cccc31)[C@@H]1CN(CCCC(=O)c3ccc(F)cc3)CC[C@@H]12 [4-t-butylbenzenesulfonate salt, lumateperone 4-tert-butylbenzenesulfonate salt]
Aqueous Solubility [1]: 770 µg/mL

CCCc1ccc(S(=O)(=O)O)cc1.CN1CCN2c3c(cccc31)[C@@H]1CN(CCCC(=O)c3ccc(F)cc3)CC[C@@H]12 [Example 4, lumateperone 4-propylbenzenesulfonate salt]
Aqueous Solubility [1]: 1620 µg/mL

CCCCCS(=O)(=O)O.CN1CCN2c3c(cccc31)C1CN(CCCC(=O)c3ccc(F)cc3)CCC12 (stereo not shown) [Example 8, lumateperone pentane-1-sulfonic salt]
Aqueous Solubility [1]: 18770 µg/mL

CCCCCCCS(=O)(=O)O.CN1CCN2c3c(cccc31)C1CN(CCCC(=O)c3ccc(F)cc3)CCC12 (stereo not shown) [Example 9, lumateperone heptane-1-sulfonic salt]
Aqueous Solubility [1]: 4300 µg/mL

CN1CCN2c3c(cccc31)[C@@H]1CN(CCCC(=O)c3ccc(F)cc3)CC[C@@H]12 [Lumateperone, 4-((6bR,10aS)-3-methyl-2,3,6b,9,10,10a-hexahydro-1H-pyrido[3′,4′: 4,5]pyrrolo[1,2,3-de]quinoxalin-8(7H)-yl)-1-(4-fluorophenyl)-1-butanone]
binding to H1 histaminergic receptors (H1 histaminergic): negligible binding | binding to 5-HT2C receptors (5-HT2C): negligible binding | binding to muscarinic receptors (muscarinic): negligible binding | aqueous solubility of free base (in words) ([2]; listed as ITI-007): poor aqueous solubility | aqueous solubility of free base (in words) ([2]; listed as Lumateperone free base): very low water-solubility
